In patent US20130231393A1, “USE OF SQUARAMIDE IN THE PREVENTION AND/OR TREATMENT OF ROSACEA” (GALDERMA RESEARCH & DEVELOPMENT, priority 2010, published 2013):

How the values were obtained:
[1] = molecular target: T1, CXCR2 (Homo sapiens, UniProt P25025); test: β-arrestin2 recruitment assay, antagonism of CXCL8 stimulation (PathHunter HEK293 hCXCR2 b-arrestin); format: cell-based; details: PathHunter HEK293 hCXCR2 b-arrestin cells, CXCL8-stimulated
T1 sequence (P25025 1-360): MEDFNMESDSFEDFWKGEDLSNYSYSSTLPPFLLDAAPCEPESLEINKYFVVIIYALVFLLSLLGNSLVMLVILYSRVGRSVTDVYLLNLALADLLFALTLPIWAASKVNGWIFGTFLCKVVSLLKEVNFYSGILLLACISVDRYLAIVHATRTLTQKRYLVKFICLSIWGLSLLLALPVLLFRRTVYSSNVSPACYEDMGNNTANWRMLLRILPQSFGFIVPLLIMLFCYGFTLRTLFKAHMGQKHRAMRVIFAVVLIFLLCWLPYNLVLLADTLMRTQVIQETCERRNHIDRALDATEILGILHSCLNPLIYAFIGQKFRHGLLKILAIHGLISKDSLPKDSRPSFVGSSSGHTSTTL
Method: (§1) Antagonism of CXCL8-Stimulated β-Arrestin2 Recruitment. […] To monitor direct interaction of CXCR2 or CXCR1 with β-arrestin2, we used a β-arrestin2 recruitment assay for CXCR2 or CXCR1 based on enzyme complementation of β-galactosidase (Olson and Eglen, 2007), as established by DiscoveRx Corporation. […] All CXCR2-antagonists are tested in dose-depedant manner (firsty dose 10 μM).
(§2) PathHunter HEK293-hCXCR2 b-arrestin cells or U2OS hCXCR1 b-arrestin cells (both from DiscoveRx Corporation) were plated out overnight at 10,000 cells/well (384-well format) in 50 μl of Opti MEM I+1% bovine serum albumin. Cells were treated with CXR2 antogonist or vehicule (Opti MEM I) and CXCL-8 at the same time for 90 min.; thereafter, 25 μl of PathHunter Detection Reagents (DiscoveRx Corporation) was added. After an incubation of 60 min at room temperature, β-galactosidase-induced luminescence upon β-arrestin-CXCR1/2 interaction was measured in an TopCount Reader (Perkin Elmer). Functional data were evaluated by a nonlinear curve fitting procedure using XLFit4 (IDBS).

[2] = molecular target: T2, CXCR1 (Homo sapiens, UniProt P25024); test: β-arrestin2 recruitment assay, antagonism of CXCL8 stimulation (U2OS hCXCR1 b-arrestin); format: cell-based; details: U2OS hCXCR1 b-arrestin cells, CXCL8-stimulated
T2 construct: β-galactosidase enzyme-complementation fragment (PathHunter system); host or cells: U2OS (U2OS hCXCR1 b-arrestin)
T2 sequence (P25024 1-350): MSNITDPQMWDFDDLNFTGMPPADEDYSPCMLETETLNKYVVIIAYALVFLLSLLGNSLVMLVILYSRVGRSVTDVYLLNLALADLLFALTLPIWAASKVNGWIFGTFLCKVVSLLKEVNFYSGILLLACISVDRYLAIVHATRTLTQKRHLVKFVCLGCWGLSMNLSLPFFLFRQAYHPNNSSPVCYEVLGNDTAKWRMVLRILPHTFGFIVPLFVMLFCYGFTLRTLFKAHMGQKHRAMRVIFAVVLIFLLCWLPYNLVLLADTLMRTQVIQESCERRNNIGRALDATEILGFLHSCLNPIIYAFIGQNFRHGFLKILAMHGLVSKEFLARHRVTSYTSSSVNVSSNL
Method: as §1, §2

[3] = tested on: hairless SKH1 mice; test: RTX-induced vasodilation in a neurogenic skin inflammation model (laser Doppler perfusion imaging); format: in vivo; details: capsazepine at 5%, topical; RTX 0.03% on the back of SKH1 mice
Method: The animal model of neurogenic skin inflammation was induced by a unique topical application of resiniferatoxin (RTX), 0.03% on the back of hairless SKH1 mice. RTX is an ultrapotent capsaicin analog and RTX exposure evokes neuropeptides release. Most of these neuropeptides have vasodilatory properties and one component of RTX-induced neurogenic inflammation is the dermal vasodilation. In the present RTX-model, the objective assessment of the skin vasodilation was evaluated by laser Doppler perfusion imaging.
Material and Method: • Measurement of RTX-Induced Vasodilation
Adult female hairless SKH1 mice aged 7-9 weeks are obtained from Charles River (France). Anaesthesia with ketamine/xylazine is performed 10 minutes before treatment and body temperature is maintained at 35° C.-37° C. using an automated heating pad. A skin area of 1.8×1.5 cm on the back of the mouse is divided in two regions of interest. One region is treated with the vehicle, the other one with RTX 0.03%. […] The skin blood perfusion is evaluated every 2 minutes on the back of the mouse with a Laser Doppler perfusion imaging PIM3 (Perimed, France). […] Images are analysed and the yield of two parameters, the erythematous surface and the blood perfusion intensity ratio, is calculated as a relative area of vasodilation (mm^2). […] Results are expressed as mean±SEM. […]

| IC50 [1] | IC50 [2] | SMILES | relative area of vasodilation, AUC decreased by [3] |
| --- | --- | --- | --- |
| 7 nM | 148 nM | CC[C@@H](Nc1c(Nc2cccc(C(=O)N(C)C)c2O)c(=O)c1=O)c1ccccc1 [3-[3,4-Dioxo-2-((R)-1-phenyl-propylamino)-cyclobut-1-enylamino]-2-hydroxy-N,N-dimethyl-benzamide] |  |
|  |  | Oc1cc2c(cc1O)CN(C(=S)NCCc1ccc(Cl)cc1)CCC2 [capsazepine] | 13% |
